Reference: ChEMBL document CHEMBL4152326 (2018)

How the values were obtained:
Type in all cases: functional
Pseudomonas aeruginosa [1] = test: Antibacterial activity against Pseudomonas aeruginosa SR27001 infected in Jcl:ICR mouse systemic infection model assessed as increase in mouse survival rate administered iv 1 to 5 hrs post infection measured over 7 days
Pseudomonas aeruginosa [2] = test: Antimicrobial activity against IMP-1 producing Pseudomonas aeruginosa SR27060 in presence of human apo-transferrin by broth microdilution method
Klebsiella pneumoniae = test: Antimicrobial activity against KPC-2 producing Klebsiella pneumoniae ATCC BAA-1705 in presence of human apo-transferrin by broth microdilution method
Pseudomonas aeruginosa [3] = test: Antimicrobial activity against IMP-1 producing Pseudomonas aeruginosa SR27001 in presence of human apo-transferrin by broth microdilution method
Acinetobacter baumannii = test: Antimicrobial activity against OXA-23/OXA-58 producing Acinetobacter baumannii SR27323 in presence of human apo-transferrin by broth microdilution method
[4] = system: Stenotrophomonas maltophilia; test: Antimicrobial activity against L-1 producing Stenotrophomonas maltophilia SR21970 in presence of human apo-transferrin by broth microdilution method
Pseudomonas aeruginosa [5] = test: Antimicrobial activity against AmpC overproducing Pseudomonas aeruginosa SR24-12 in presence of human apo-transferrin by broth microdilution method
Pseudomonas aeruginosa [6] = test: Antimicrobial activity against Pseudomonas aeruginosa 27060deltaR1 harboring deletion of R1 plasmid in presence of human apo-transferrin by broth microdilution method
Pseudomonas aeruginosa [7] = test: Antimicrobial activity against Pseudomonas aeruginosa SR24 in presence of human apo-transferrin by broth microdilution method
Escherichia coli = test: Antimicrobial activity against SHV-4 producing Escherichia coli ATCC BAA-200 in presence of human apo-transferrin by broth microdilution method
Pseudomonas aeruginosa [8] = test: Antimicrobial activity against VIM-2 producing Pseudomonas aeruginosa SBRKM-28 in presence of human apo-transferrin by broth microdilution method

Row | Structure (SMILES) | ED50 (Pseudomonas aeruginosa [1]) [mg/kg] | MIC (Pseudomonas aeruginosa [2]) [µg/mL] | MIC (Klebsiella pneumoniae) [µg/mL] | MIC (Pseudomonas aeruginosa [3]) [µg/mL] | MIC (Acinetobacter baumannii) [µg/mL] | MIC [4] [µg/mL] | MIC (Pseudomonas aeruginosa [5]) [µg/mL] | MIC (Pseudomonas aeruginosa [6]) [µg/mL] | MIC (Pseudomonas aeruginosa [7]) [µg/mL] | MIC (Escherichia coli) [µg/mL] | MIC (Pseudomonas aeruginosa [8]) [µg/mL]
1 | CC(C)(O/N=C(\C(=O)N[C@@H]1C(=O)N2C(C(=O)[O-])=C(C[N+]3(CCNC(=O)c4ccc(O)c(O)c4F)CCCC3)CS[C@H]12)c1csc(N)n1)C(=O)O | 5.48 | 1 | ≤ 0.031 | 2 | 0.5 | 0.25 | 0.125 | 1 | 0.125 | 0.5 | –
2 | CC(C)(O/N=C(\C(=O)N[C@@H]1C(=O)N2C(C(=O)[O-])=C(C[N+](C)(C)[C@@H]3CCN(C(=O)c4ccc(O)c(O)c4Cl)C3)CS[C@H]12)c1csc(N)n1)C(=O)O | 5.48 | 2 | 0.25 | 2 | 1 | 1 | 0.5 | 1 | 0.25 | 2 | 0.25
3 | CC(C)(O/N=C(\C(=O)N[C@@H]1C(=O)N2C(C(=O)[O-])=C(C[N@+]3(C)[C@@H]4CC[C@H]3C[C@@H](NC(=O)c3ccc(O)c(O)c3Cl)C4)CS[C@H]12)c1csc(N)n1)C(=O)O | 10.5 | 1 | 0.063 | 0.5 | 1 | 1 | 0.5 | 0.5 | 0.25 | 2 | 0.063
4 | CO/N=C(\C(=O)N[C@@H]1C(=O)N2C(C(=O)[O-])=C(C[N+]3(C)CCCC3)CS[C@H]12)c1csc(N)n1 | > 100 | > 64 | 32 | > 64 | 16 | 64 | 16 | 16 | 0.5 | 4 | 16
5 | Nc1nc(/C(=N/OCC(=O)O)C(=O)N[C@@H]2C(=O)N3C(C(=O)[O-])=C(C[N+]4(CCNC(=O)c5ccc(O)c(O)c5Cl)CCCC4)CS[C@H]23)cs1 | 9.84 | 4 | 0.25 | 2 | 0.5 | 1 | 0.5 | 2 | 0.125 | 32 | 0.125
6 | C[C@@H](O/N=C(\C(=O)N[C@@H]1C(=O)N2C(C(=O)[O-])=C(C[N+]3(CCNC(=O)c4ccc(O)c(O)c4Cl)CCCC3)CS[C@H]12)c1csc(N)n1)C(=O)O | 5.48 | 2 | 0.063 | 1 | 1 | 0.5 | 0.5 | 1 | 0.25 | 1 | 0.125
7 | CC(C)(O/N=C(\C(=O)N[C@@H]1C(=O)N2C(C(=O)[O-])=C(C[N+]3(CCNC(=O)c4cc(O)c(O)c(Cl)c4)CCCC3)CS[C@H]12)c1csc(N)n1)C(=O)O | 10.2 | 1 | ≤ 0.031 | 1 | 0.25 | 0.25 | 0.125 | 0.25 | 0.063 | 0.5 | –
8 | CC(C)(O/N=C(\C(=O)N[C@@H]1C(=O)N2C(C(=O)[O-])=C(C[N+]3(CCNC(=O)c4ccc(O)c(O)c4Cl)CCCCC3)CS[C@H]12)c1csc(N)n1)C(=O)O | – | 2 | 0.031 | 1 | 1 | 0.25 | 0.25 | 1 | 0.25 | 0.5 | 0.125
9 | CC(C)(O/N=C(\C(=O)N[C@@H]1C(=O)N2C(C(=O)[O-])=C(C[N+]3(CCNC(=O)c4cc(O)c(O)cc4Cl)CCCC3)CS[C@H]12)c1csc(N)n1)C(=O)O | 10.2 | 2 | ≤ 0.031 | 2 | 1 | 0.25 | 0.125 | 1 | 0.063 | 2 | –
